Converted amounts (≈) assume the structure as drawn.
Experiments:
Assay in all cases: in vitro antibacterial evaluation, MIC by broth dilution
Format in all cases: cell-based
Enterococcus sp. = details: broth dilution, 18 hours at 35° C.
Method in brief: (§1)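 Following National Committee for Clinical Laboratory Standards recommendations (M7-A2), susceptibility was measured by dilution in Muller-Hinton II […]. Bacteria were seeded at 5×10^5 CFU/mL against compound concentrations from 64 down to 0.06 μg/mL.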

Staphylococcus sp. = details: broth dilution, 18 hours at 35° C.
Method in brief: as §1

Streptococcus sp. = details: broth dilution, 18 hours at 35° C.
Method in brief: as §1

Escherichia coli = details: 18 hours at 35° C.

MIC Enterococcus avium (GC 4558) (Enterococcus sp.): 4 µg/mL (≈ 2.74 µM)
MIC Enterococcus faecalis (ATCC 29212) (Enterococcus sp.): 4 µg/mL (≈ 2.74 µM)
MIC Enterococcus faecalis (GC 2242) (Enterococcus sp.): 4 µg/mL (≈ 2.74 µM)
MIC Enterococcus faecalis (GC 6189) (Enterococcus sp.): 1 µg/mL (≈ 0.685 µM)
MIC Enterococcus faecium (GC 2243) (Enterococcus sp.): 1 µg/mL (≈ 0.685 µM)
MIC Enterococcus faecium (GC 4556) (Enterococcus sp.): 4 µg/mL (≈ 2.74 µM)
MIC Enterococcus faecalis (ATCC 29212) (Enterococcus sp.; inoculum 5×10^5 CFU/mL, strain ATCC 29212): 4 µg/mL (≈ 2.74 µM)
MIC Enterococcus faecalis (GC 2242) (Enterococcus sp.; inoculum 5×10^5 CFU/mL, strain GC 2242): 4 µg/mL (≈ 2.74 µM)
MIC Enterococcus faecium (GC 2243) (Enterococcus sp.; inoculum 5×10^5 CFU/mL, strain GC 2243): 1 µg/mL (≈ 0.685 µM)
MIC Enterococcus faecium (GC 4556) (Enterococcus sp.; inoculum 5×10^5 CFU/mL, strain GC 4556): 4 µg/mL (≈ 2.74 µM)
MIC Enterococcus avium (GC 4558) (Enterococcus sp.; inoculum 5×10^5 CFU/mL, strain GC 4558): 4 µg/mL (≈ 2.74 µM)
MIC Enterococcus faecalis (GC 6189) (Enterococcus sp.; inoculum 5×10^5 CFU/mL, strain GC 6189): 1 µg/mL (≈ 0.685 µM)
MIC Staphylococcus aureus (ATCC 29213) (Staphylococcus sp.; strain ATCC 29213): 4 µg/mL (≈ 2.74 µM)
MIC Staphylococcus aureus (GC 1131) (Staphylococcus sp.; strain GC 1131): 2 µg/mL (≈ 1.37 µM)
MIC Staphylococcus aureus (GC 4541) (Staphylococcus sp.; strain GC 4541): 2 µg/mL (≈ 1.37 µM)
MIC Staphylococcus aureus-SMITH (GC 4543) (Staphylococcus sp.; strain GC 4543): 1 µg/mL (≈ 0.685 µM)
MIC Coagulase Negative Staphylococcus (GC 4547) (Staphylococcus sp.; strain GC 4547): 4 µg/mL (≈ 2.74 µM)
MIC Coagulase Negative Staphylococcus (GC 4548) (Staphylococcus sp.; strain GC 4548): 1 µg/mL (≈ 0.685 µM)
MIC Coagulase Negative Staphylococcus (GC 4549) (Staphylococcus sp.; strain GC 4549): 1 µg/mL (≈ 0.685 µM)
MIC Coagulase Negative Staphylococcus (GC 6257) (Staphylococcus sp.; strain GC 6257): 2 µg/mL (≈ 1.37 µM)
MIC Streptococcus pneumoniae (ATCC 6301) (Streptococcus sp.): <0.06 µg/mL
MIC Streptococcus pneumoniae (GC 1894) (Streptococcus sp.): <0.06 µg/mL
MIC Streptococcus pneumoniae (ATCC 6301) (Streptococcus sp.; inoculum 5×10^5 CFU/mL, strain ATCC 6301): <0.06 µg/mL
MIC Streptococcus pneumoniae (GC 1894) (Streptococcus sp.; inoculum 5×10^5 CFU/mL, strain GC 1894): <0.06 µg/mL
MIC Escherichia coli (ATCC 25922) (Escherichia coli): 64 µg/mL (≈ 43.8 µM)
MIC Escherichia coli (GC 4559) (Escherichia coli): >64 µg/mL
MIC Escherichia coli (GC 4560) (Escherichia coli): 4 µg/mL (≈ 2.74 µM)
SMILES: CC(c1ccccc1)C1NC(=O)CNC(=O)C(CO)NC(=O)C(C(O)C2CNC(=N)N2C2OC(CO)C(O)C(O)C2O)NC(=O)C(C(O)C2CNC(=N)N2)NC(=O)C(Cc2ccc(OC3OC(CO)C(OC4OC5COC6(CCCCCCCCCCC6)OC5C(O)C4O)C(O)C3O)cc2)NC1=O (stereo not drawn) [Example 209]

Source: patent US6914045B2, “Glycopeptide antibiotics” (Wyeth Holdings Corporation, priority 2001, dated 2005)
